Data from patent US7700587B2, “Haloperidol analogs” (Florida A&M University, priority 2004, dated 2010).

Experiments:
Swiss male mice = experiment: Apomorphine induced climbing-stereotypy; type: in vivo; details: for inhibition of apomorphine induced climbing (dopamine receptor antagonist in vivo): intraperitoneal, apomorphine challenge
Male SD rats = experiment: Bar test for catalepsy; type: in vivo; details: for statistical comparison of effects in catalepsy bar test (t-test, p<0.05): all four doses; for catalepsy (EPS) in bar test: subcutaneous, at the doses used
Description: Bar test for catalepsy: A modified bar test by Needham et al, supra was used. […] Catalepsy severity was assessed immediately at various time points (15, 30, 45, 60, and 90 min) post injection, by scoring how long the rat maintained both forepaws motionless on a horizontal metal bar (1.1 cm in diameter, 10 cm above the bench top in a box). A score of 1 was given for every 5 seconds (2 min. maximum) the animal remained on the bar. Mean scores from 5 animals per time point were recorded for catalepsy and plotted in FIG. 2.
Statistical analysis: The student t-test was used to compare the three compounds used in the animal behavioral tests. Results were considered significant at p<0.05.

Molecule | inhibition of apomorphine induced climbing (dopamine receptor antagonist in vivo) (Swiss male mice) | statistical comparison of effects in catalepsy bar test (t-test, p<0.05) (Male SD rats) | statistical comparison of effects in catalepsy bar test (t-test, p<0.05) (Male SD rats; listed as the analog) | catalepsy (EPS) in bar test (Male SD rats; listed as 2) | catalepsy (EPS) in bar test (Male SD rats; listed as drawing 7) | statistical comparison of effects in climbing test (t-test, p<0.05) (Swiss male mice; all four doses) | inhibition of apomorphine induced climbing (dopamine receptor antagonist in vivo) (Swiss male mice; listed as 2) | inhibition of apomorphine induced climbing (dopamine receptor antagonist in vivo) (Swiss male mice; listed as drawing 7)
8-chloro-1-(4-methyl-1-piperazinyl)-5H-dibenzo[b,e]-[1,4]-diazepine [Clozapine (3), reference compound] | acting as a dopamine receptor antagonist |  |  |  |  |  |  | 
O=C(CCCN1CCC(O)(c2ccc(Cl)cc2)C1)c1ccc(F)cc1 (racemic) [Analog [A] (2), 4-[3-hydroxy-3-(4′-chlorophenyl)pyrrolidinyl]-4″-fluorobutyrophenone] |  | statistically similar to clozapine's | significantly different from compound 1 but non significantly different from compound 3 | no catalepsy | much less severe EPS (manifested as catalepsy in animal models) than haloperidol | significantly different from compound 1 but non significantly different from compound 3 | could inhibit apormophine induced climbing in mice | act as antidopaminergics in vivo
O=C(CCCN1CCC(O)(c2ccc(Cl)cc2)CC1)c1ccc(F)cc1 [Haloperidol (1), 4-[4-(4-chlorophenyl)-4-hydroxy-1-piperidinyl]-1-(4-fluorophenyl)-1-butanone, reference compound] | acting as a dopamine receptor antagonist |  |  |  |  |  |  | 
